This note sets out measurements from patent US8802711B2, “TRPV1 antagonists” (AbbVie Inc., priority 2011, dated 2014).

As usually defined, the IC50 is the concentration needed to halve the response being measured.

The target of assay [1] is T1, human TRPV1 receptor (hTRPV1) (Homo sapiens (Human), UniProt Q8NER1). Briefly: Capsaicin activation assay (FLIPR intracellular Ca2+). Format: cell-based. To be noted: inhibition of capsaicin-induced intracellular Ca2+ increase, read-out: hTRPV1 cap IC50. An outline of the steps:
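Antagonism measured as [Ca2+]i fluorescence on FLIPR Tetra: compounds given 3 min ahead of capsaicin, added as 200 nM (4×), to dye-loaded hTRPV1-HEK293 cells. Response taken as baseline-subtracted peak, normalized to the 50 nM capsaicin control; 12-point one-third-log titrations.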

Assay [2] has as its target T1, human TRPV1 receptor (hTRPV1). The experiment in a line: Acid activation assay (pH 5.0, FLIPR intracellular Ca2+). Format: cell-based. To be noted: 37.5 μM antagonist, percentage of the maximal pH 5.0-induced response remaining, read-out: hTRPV1 H+ (max % remain). The procedure, abridged: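 Antagonism of acid-evoked Ca2+ influx measured by FLIPR Calcium-4 fluorescence after a pH 5.0 DPBS/MES stimulus, with compounds preincubated 3 min over 12 half-log concentrations. Cells: stable hTRPV1-expressing 1321N1 line, dye-loaded 90–120 min in the dark at 25 °C.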

Assay [3] concerns Sprague-Dawley rats. Briefly: Rat tail immersion assay (noxious thermosensation). Format: in vivo. To be noted: rat, 100 μmol/kg oral, one hour post dosing, 55° C. water bath, relative to vehicle; for change in vivo at 100 µmol/kg: 1 h, read-out: % Increase in tail withdrawal latency. The procedure: (§1) Adult male Sprague-Dawley rats (250-300 g body weight, Charles River Laboratories, Portage, Mich.) were used. Animal handling and experimental protocols were approved by the Institutional Animal Care and Use Committee (IACUC) at Abbott Laboratories. For all surgical procedures, animals were maintained under isoflurane anesthesia (4-5% to induce, 1-3% to maintain), and the incision sites were sterilized using a 10% povidone-iodine solution prior to and after surgeries.
Compounds were tested for their effects on noxious thermosensation using the tail immersion assay. Testing was performed one hour following oral administration of 100 μmol/kg of the compound in 10% ethanol/20% Tween-80/70% PEG-400 (2 mL/kg). Morphine (6 mg/kg) was administered interperitoneally (i.p.) using saline (2 mL/kg) as the vehicle. For testing, a circulating water bath was heated to 55° C. Thirty to sixty minutes post dosing, the rats were handled for a few seconds to calm them down and then cupped with their back against the tester's hand at a slight angle with head facing away from the tester. With rat in one hand and a 0.01 second stopwatch in the other hand, the tail was quickly immersed 6-8 cm in the water bath or to a distance leaving 2-3 cm of tail out of water. The timer was started simultaneously. When the rat flinched or attempted withdrawal, timer was immediately stopped and the rat's tail was quickly removed from water bath. This response latency (in seconds) was recorded. Process was repeated 3 times with 3-4 minutes between readings and the average response latency was calculated.
For a given example, a percent increase in the average response latency (in seconds) for tail withdrawal relative to a vehicle control was determined. % increase=[(tc−tv)/tv]×100%
tc=response latency (in seconds) with oral dosing of compounds
tv=response latency (in seconds) with oral dosing of vehicle
The % increases in tail withdrawal latency relative to vehicle control are divided into the following categories: […]

The subject of assay [4] is Sprague-Dawley rats. The experiment in a line: Rat acute capsaicin-induced flinching behavior. Format: in vivo. The note with it: 100 μmol/kg p.o., percent reduction in number of flinching behaviors.
From the text: as §1
Rats were placed in individual observation cages. […] One hour after administration of the test compound, 2.5 μg of capsaicin in a 10 μL solution of 10% ethanol/90% hydroxypropyl-β-cyclodextrin was injected subcutaneously into the dorsal aspect of the right hind paw. The observation cage was then suspended above mirrors in order to facilitate observation. […] The number of flinching behaviors of the injured paw was recorded during the five minute observation period (Gilchrist, H. D.; Allard, B. L.; Simone, D. A.; Enhanced withdrawal responses to heat and mechanical stimuli following intraplantar injection of capsaicin in rats. Pain, 1996, 67, 179-188). The percent reduction in the number of flinching behaviors produced with oral administration of representative compounds of the present invention relative to control-treated animals (% effect) is reported in Table 3.

The subject of assay [5] is Sprague-Dawley rats. The experiment in a line: Sodium iodoacetate-induced knee joint osteoarthritic pain model. It is filed as in vivo, rat. To be noted: 10 mg/kg p.o., 1 hour after dosing, % return to normalcy of hind limb grip force.
From the text: as §1
Unilateral knee joint osteoarthritis was induced in the rats by a single intra-articular (i.a.) injection of sodium iodoacetate (3 mg in 0.05 mL sterile isotonic saline) into the right knee joint cavity under light isoflurane anesthesia using a 26 G needle. […] Pain behavioral assessment of hind limb grip force was conducted by recording the maximum compressive force exerted on the hind limb strain gauge setup, in a commercially available grip force measurement system (Columbus Instruments, Columbus, Ohio), to elicit paw withdrawal. The grip force data was converted to a maximum hindlimb cumulative compressive force (CFmax) (gram force)/kg body weight for each animal. The analgesic effects of test compounds were determined 20 days following the i.a. injection of sodium iodoacetate. The vehicle control group for each compound being tested was assigned 0% whereas the age matched naïve group was assigned as being 100% (normal). The % effect for each dose group was then expressed as % return to normalcy compared to the naïve group. Test compounds were administered orally in 10% ethanol/20% Tween 80/70% polyethylene glycol-400 vehicle at a volume of 2 mL/kg. The assessment of the analgesic effects of test compounds was made 1 hour following oral administration. The assessment of the analgesic effects of test compounds can be made following a single dose or following repeated administration wherein the frequency of dosing is 1 to 2 times daily. The duration of such repeated daily dosing may last for any time greater than one day. A typical duration of repeated daily dosing is about 5 days to about 12 days.

[6] abbreviates: Table 1, HEK293 cells expressing human TRPV1.

Like-named read-outs stand apart in the source and are kept apart here. Some results are limits rather than exact numbers.

T1 sequence (Q8NER1 whole entry): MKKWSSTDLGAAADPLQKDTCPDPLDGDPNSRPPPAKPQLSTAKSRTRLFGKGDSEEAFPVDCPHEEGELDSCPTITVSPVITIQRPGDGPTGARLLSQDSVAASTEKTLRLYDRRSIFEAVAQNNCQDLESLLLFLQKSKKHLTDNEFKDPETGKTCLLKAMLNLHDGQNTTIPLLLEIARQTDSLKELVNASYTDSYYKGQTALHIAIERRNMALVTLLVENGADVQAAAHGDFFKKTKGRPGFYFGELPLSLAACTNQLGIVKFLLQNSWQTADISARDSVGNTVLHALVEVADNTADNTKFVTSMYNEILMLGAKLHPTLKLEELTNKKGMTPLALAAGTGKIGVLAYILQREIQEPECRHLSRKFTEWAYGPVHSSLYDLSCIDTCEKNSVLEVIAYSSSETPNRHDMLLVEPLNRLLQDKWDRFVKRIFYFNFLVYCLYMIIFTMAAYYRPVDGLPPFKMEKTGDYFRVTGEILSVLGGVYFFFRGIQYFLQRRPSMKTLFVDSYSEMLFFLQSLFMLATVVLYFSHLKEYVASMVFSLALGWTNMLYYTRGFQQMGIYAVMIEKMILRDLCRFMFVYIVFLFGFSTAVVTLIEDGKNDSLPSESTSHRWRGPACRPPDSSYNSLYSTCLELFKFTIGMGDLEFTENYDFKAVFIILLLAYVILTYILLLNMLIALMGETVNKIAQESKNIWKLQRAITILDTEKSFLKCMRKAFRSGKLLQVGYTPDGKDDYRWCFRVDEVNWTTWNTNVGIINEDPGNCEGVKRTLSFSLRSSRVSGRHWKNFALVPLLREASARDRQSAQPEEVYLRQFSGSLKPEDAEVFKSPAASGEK

Turning to `O=C(Nc1cccc2c1C[C@@H](O)C2)N[C@@H]1CC[C@H](c2ccccc2)C1` [Example 2, 1-[(2S)-2-hydroxy-2,3-dihydro-1H-inden-4-yl]-3-[(1R,3S)-3-phenylcyclopentyl]urea], the IC50 in assay [1] (setting [6]) and in assay [1] (Table 2) was 29 nM each time. For the same compound, the remaining activity at 37.5 µM in assay [2] (Table 1) and in assay [2] (Table 2) was 40% each time. For the same compound, the “% Increase in tail withdrawal latency” value in the assay on Sprague-Dawley rats [3] was “−”.

Turning to `O=C(Nc1cccc2[nH]ncc12)N[C@@H]1CC[C@H](c2ccccc2)C1` [Example 7, 1-(1H-indazol-4-yl)-3-[(1R,3S)-3-phenylcyclopentyl]urea], the IC50 in assay [1] (setting [6]) and in assay [1] (Table 2) was 9 nM in each case. Also, the remaining activity at 37.5 µM in assay [2] (Table 1) and in assay [2] (Table 2) was 32% throughout. In addition, the “% Increase in tail withdrawal latency” value in the assay with Sprague-Dawley rats [3] is given as “−”.

In the case of `Cc1cc2c(NC(=O)N[C@@H]3CC[C@@H](c4ccccc4)C3)c(F)ccc2cn1` [Example 20, 1-(6-fluoro-3-methylisoquinolin-5-yl)-3-[(1R,3R)-3-phenylcyclopentyl]urea], the half-inhibitory concentration (IC50) in assay [1] (setting [6]) and in assay [1] (Table 2) was 5 nM in each case. Moreover, the remaining activity at 37.5 µM in assay [2] (Table 1) and in assay [2] (Table 2) was 32% in each case. In addition, the “% Increase in tail withdrawal latency” value in the assay on Sprague-Dawley rats [3] is given as “−”.

Regarding `Cc1cc2c(NC(=O)N[C@H]3CC[C@@H](c4ccccc4)C3)c(F)ccc2cn1` [Example 27, 1-(6-fluoro-3-methylisoquinolin-5-yl)-3-[(1S,3R)-3-phenylcyclopentyl]urea], the IC50 turned out to be 7 nM in assay [1] (setting [6]) and 6 nM in assay [1] (Table 2). The remaining activity at 37.5 µM in assay [2] (Table 1) and in assay [2] (Table 2) was 60% each time. In addition, the “% Increase in tail withdrawal latency” value with Sprague-Dawley rats [3] is “−”.

Take `O=C(Nc1cccc2[nH]ncc12)N[C@@H]1C=C[C@H](c2ccccc2)C1` [Example 48, 1-(1H-indazol-4-yl)-3-[(1S,4R)-4-phenylcyclopent-2-en-1-yl]urea]: the 50% inhibitory concentration (IC50) in assay [1] (setting [6]) and in assay [1] (Table 2) was 42 nM throughout. Also, the remaining activity at 37.5 µM in assay [2] (Table 1) and in assay [2] (Table 2) was 49% in each case. Besides, the “% Increase in tail withdrawal latency” value in the assay on Sprague-Dawley rats [3] is given as “−”.

Take `Cn1c(=O)ccc2c(NC(=O)N[C@@H]3CC[C@H](c4ccccc4)C3)cccc21` [Example 51, 1-(1-methyl-2-oxo-1,2-dihydroquinolin-5-yl)-3-((1R,3S)-3-phenylcyclopentyl)urea]: the half-inhibitory concentration (IC50) in assay [1] (setting [6]) and in assay [1] (Table 2) was 13 nM in each case. Also, the remaining activity at 37.5 µM in assay [2] (Table 1) and in assay [2] (Table 2) was 56% in each case. For the same compound, the “% Increase in tail withdrawal latency” value in the assay on Sprague-Dawley rats [3] is given as “−”. Besides, the “% effect” value in the assay with Sprague-Dawley rats [4] came to 30%.

`O=C(Nc1cccc2[nH]ncc12)N[C@@H]1CC[C@H](c2ccccc2F)C1` [Example 61, 1-[(1R,3S)-3-(2-fluorophenyl)cyclopentyl]-3-(1H-indazol-4-yl)urea]: the IC50 in assay [1] (setting [6]) was found to be 32 nM. Further, in assay [2] (Table 1), the remaining activity at 37.5 µM came to 44%. Moreover, the “% effect” value in the assay on Sprague-Dawley rats [5] is on record as 34%.

Take `O=C(Nc1cccc2[nH]ncc12)N[C@H]1CC[C@H](c2cccc(F)c2)C1` [Example 64, 1-[(1S,3S)-3-(3-fluorophenyl)cyclopentyl]-3-(1H-indazol-4-yl)urea]: in assay [1] (setting [6]), the IC50 worked out at 29 nM. In assay [2] (Table 1), the remaining activity at 37.5 µM came to 25%. For the same compound, the “% effect” value with Sprague-Dawley rats [5] amounted to 48%.

Take `O=C(Nc1cccc2[nH]ncc12)N[C@@H]1CC[C@@H](c2ccccc2F)C1` [Example 66, 1-[(1R,3R)-3-(2-fluorophenyl)cyclopentyl]-3-(1H-indazol-4-yl)urea]: the half-inhibitory concentration (IC50) in assay [1] (setting [6]) was found to be 8.2 nM; in assay [1] (Table 2), 8 nM. In addition, the remaining activity at 37.5 µM in assay [2] (Table 1) and in assay [2] (Table 2) was 29% throughout. Besides, the change in vivo at 100 µmol/kg with Sprague-Dawley rats [3] is > 25%.

In the case of `Cn1c(=O)ccc2c(NC(=O)N[C@@H]3CC[C@@H](c4cccc(F)c4)C3)cccc21` [Example 78, 1-[(1R,3R)-3-(3-fluorophenyl)cyclopentyl]-3-(1-methyl-2-oxo-1,2-dihydroquinolin-5-yl)urea], the IC50 in assay [1] (setting [6]) is 6.5 nM; in assay [1] (Table 2) it was 7 nM. Moreover, the remaining activity at 37.5 µM in assay [2] (Table 1) and in assay [2] (Table 2) was 78% in each case. Also, the change in vivo at 100 µmol/kg in the assay on Sprague-Dawley rats [3] is 10 to 25%.

Take `CN1C(=O)CCc2c(NC(=O)N[C@H]3CC[C@H](c4ccccc4)C3)cccc21` [Example 96, 1-(1-methyl-2-oxo-1,2,3,4-tetrahydroquinolin-5-yl)-3-[(1S,3S)-3-phenylcyclopentyl]urea]: the IC50 in assay [1] (setting [6]) and in assay [1] (Table 2) was 63 nM throughout. Besides, the remaining activity at 37.5 µM in assay [2] (Table 1) and in assay [2] (Table 2) was 66% each time. In addition, the change in vivo at 100 µmol/kg in the assay on Sprague-Dawley rats [3] lay within 10 to 25%.

In the case of `Cc1nc(Nc2cccc3c2C[C@H](O)CC3)oc1-c1ccc(C(F)(F)F)cc1` [K, reference compound], the remaining activity at 37.5 µM in assay [2] (Table 2) was found to be 3%. Further, the change in vivo at 100 µmol/kg with Sprague-Dawley rats [3] is > 25%.

Turning to `Cc1cccnc1N1CC=C(C(=O)Nc2ccc(S(=O)(=O)C(F)(F)F)cc2)CC1` [L, reference compound], the remaining activity at 37.5 µM in assay [2] (Table 2) is 2%. Besides, the change in vivo at 100 µmol/kg with Sprague-Dawley rats [3] was > 25%.
